Results as given in patent US11365187B2, “Pesticidally active pyrazole derivatives” (SYNGENTA PARTICIPATIONS AG, priority 2017, dated 2022).

Tests used:
Assay type in all cases: in vivo
[1] = tested on: Thrips tabaci (Onion thrips); assay: Thrips tabaci feeding/contact activity on sunflower leaf discs; conditions: foliar, 144 h
Description: Thrips tabaci (Onion thrips): Feeding/Contact activity
(§1) Sunflower leaf discs were placed on agar in 24-well microtiter plates and sprayed with aqueous test solutions prepared from 10′000 ppm DMSO stock solutions. After drying the leaf discs were infested with a thrips population of mixed ages. The samples were assessed for mortality 6 days after infestation.

[2] = tested on: Diabrotica balteata (Corn root worm); assay: Diabrotica balteata (Corn root worm) mortality on sprayed maize sprouts; conditions: 96 h
Description: Diabrotica balteata (Corn root worm):
Maize sprouts placed onto an agar layer in 24-well microtiter plates were treated with aqueous test solutions prepared from 10′000 ppm DMSO stock solutions by spraying. After drying, the plates were infested with L2 larvae (6 to 10 per well). The samples were assessed for mortality 4 days after infestation.

[3] = tested on: Myzus persicae (Green peach aphid); assay: Myzus persicae feeding/contact activity on sunflower leaf discs; conditions: foliar, 144 h
Description: Myzus persicae (Green peach aphid): Feeding/Contact activity
Sunflower leaf discs were placed onto agar in a 24-well microtiter plate and sprayed with aqueous test solutions prepared from 10′000 ppm DMSO stock solutions. After drying, the leaf discs were infested with an aphid population of mixed ages. The samples were assessed for mortality 6 days after infestation.

[4] = tested on: Plutella xylostella (Diamond back moth); assay: Plutella xylostella feeding/contact activity on artificial diet; conditions: 120 h
Description: Plutella xylostella (Diamond back moth): Feeding/contact activity
24-well microtiter plates with artificial diet were treated with aqueous test solutions prepared from 10′000 ppm DMSO stock solutions by pipetting. After drying, the plates were infested with L2 larvae (10 to 15 per well). The samples were assessed for mortality 5 days after infestation.

[5] = tested on: Euschistus heros (Neotropical Brown Stink Bug); assay: Euschistus heros feeding/contact activity on soybean leaves; conditions: 120 h
Description: Euschistus heros (Neotropical Brown Stink Bug): Feeding/contact activity
Soybean leaves on agar in 24-well microtiter plates were sprayed with aqueous test solutions prepared from 10′000 ppm DMSO stock solutions. After drying the leaves were infested with N2 nymphs. The samples were assessed for mortality 5 days after infestation.

[6] = tested on: Spodoptera littoralis (Egyptian cotton leaf worm); assay: Spodoptera littoralis feeding/contact activity on cotton leaf discs; conditions: foliar, 72 h
Description: Spodoptera littoralis (Egyptian cotton leaf worm): Feeding/contact activity
Cotton leaf discs were placed onto agar in 24-well microtiter plates and sprayed with aqueous test solutions prepared from 10′000 ppm DMSO stock solutions. After drying the leaf discs were infested with five L1 larvae. The samples were assessed for mortality 3 days after infestation. […] 2, 3, 4, 5, 6, 7, 8, 9, 10, 11, 12, 13, 14, 15, 16, 17, 18, 19, 20, 21, 22, 23, 24, 25, 26, 27, 28 and 29.

[7] = tested on: Tetranychus urticae (Two-spotted spider mite); assay: Tetranychus urticae feeding/contact activity on bean leaf discs; conditions: foliar, 192 h, read-out: mortality on mixed population (mobile stages)
Description: Tetranychus urticae (Two-spotted spider mite): Feeding/contact activity
as §1, with “Bean” for “Sunflower”, “discs” for “discs were placed”, “were” for “and”, “mite” for “thrips”, “on mixed population (mobile stages) 8” for “6”

Measured: mortality at 200 ppm

COC(=O)N(C(=O)c1cc(-c2cnn(-c3c(OC(F)F)c(C(F)(C(F)(F)F)C(F)(F)F)nn3C)c2)ccc1Cl)C1(C#N)CC1 [Example 18, methyl N-[2-chloro-5-[1-[4-(difluoromethoxy)-2-methyl-5-[1,2,2,2-tetrafluoro-1-(trifluoromethyl)ethyl]pyrazol-3-yl]pyrazol-4-yl]benzoyl]-N-(1-cyanocyclopropyl)carbamate]
≥ 80%: all assays above
